# Experimental data taken from PMC10377034, “Syntheses of 25-Adamantyl-25-alkyl-2-methylidene-1α,25-dihydroxyvitamin D3 Derivatives with Structure–Function Studies of Antagonistic and Agonistic Active Vitamin D Analogs” (Biomolecules, 2023).
# pIC50: −log10 of the molar value.
# Columns and labels:
# recombinant hVDR-LBD = biological target: T1, recombinant hVDR-LBD (Homo sapiens, UniProt P11473); details: relative to 1,25(OH)2D3
# T1 sequence (P11473 140-427): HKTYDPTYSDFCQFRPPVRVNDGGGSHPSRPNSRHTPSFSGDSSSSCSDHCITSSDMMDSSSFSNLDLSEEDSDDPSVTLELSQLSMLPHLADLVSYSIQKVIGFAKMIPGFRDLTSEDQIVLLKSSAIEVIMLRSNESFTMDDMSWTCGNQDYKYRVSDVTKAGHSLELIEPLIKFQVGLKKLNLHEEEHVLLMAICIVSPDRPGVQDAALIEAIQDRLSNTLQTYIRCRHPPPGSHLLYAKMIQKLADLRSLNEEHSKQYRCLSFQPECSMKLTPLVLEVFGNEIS
# Procedure: The pGEX-hVDR and pGEX were expressed for a GST-VDR fusion protein and a control GST protein, respectively, in Escherichia coli BL21 (Merck, Darmstadt, Germany). The bacteria were lysed by sonication in a sonication buffer (50 mM Tris-HCl, pH 8.0, 50 mM NaCl, 1 mM EDTA, and 1 mM DTT). The supernatant proteins (1 μg) were diluted in a binding buffer (25 mM Tris, pH 7.5, 100 mM KCl, 25 mM DTT, 4 mM CHAPS, pH 7.5) containing bovine serum albumin (100 μg/mL). A solution containing each test compound in 15 μL of EtOH was added to 570 μL of the GST protein solution in each tube. After being vortexed 2–3 times, the mixture was incubated for 30 min at room temperature. […] After being vortexed 2–3 times, the whole mixture was allowed to stand at 4 °C for 20 h, and 400 μL of dextran-coated charcoal solution (Sigma) was added to remove free ligands.
# All values represent the means, and error bars are the standard deviations derived from triplicate assays.
# [1] = test system: CYP24A1 expression in U937 cells; experiment: CYP24A1 expression (RT-qPCR) in U937 cells; details: U937 blood cells, 100 nM, 24 h
# Procedure: (§1) SW480 human colon carcinoma cells (American Type Culture Collection, Manassas, VA) and HaCaT immortalized keratinocyte cells (kindly provided by Dr. Tadashi Terui, Department of Dermatology, Nihon University School of Medicine) were cultured in DMEM containing 10% FBS, 100 U/mL penicillin, and 0.1 mg/mL streptomycin. […] All cells were cultured at 37 °C in a humidified atmosphere containing 5% CO2.
# (§2) For gene expression analysis, 1 × 10^4 cells per well were plated in a 24-well plate. After 24 h, the cells were treated with an ethanol control or 100 nM of each test compound for 24 h. The total RNAs from the samples were extracted using the acid guanidine thiocyanate phenol/chloroform method [57], and cDNAs were synthesized using the ImProm-II reverse transcription system (Promega, Madison, WI) [43]. Real-time PCR was performed on the ABI PRISM 7000 sequence detection system (Thermo Fisher Scientific, Waltham, MA, USA) using Power SYBR Green PCR master mix (Thermo Fisher Scientific).
# (§3) One-way ANOVA followed by Turkey’s multiple comparisons: ※ p < 0.05, ※※ p < 0.01, ※※※ p < 0.001 versus vehicle control.
# [2] = test system: CYP24A1 expression in MG63 cells; experiment: CYP24A1 expression (RT-qPCR) in MG63 cells; details: MG63 bone cells, 100 nM, 24 h
# Procedure: (§4) HEK293 human kidney cells (RIKEN Cell Bank, Tsukuba, Japan) were cultured in Dulbecco’s modified Eagle’s medium (DMEM) (Fujifilm Wako Pure Chemical Corporation, Tokyo, Japan) containing 5% fetal bovine serum (FBS), 100 U/mL penicillin, and 0.1 mg/mL streptomycin (Nacalai Tesque, Kyoto, Japan). SW480 human colon carcinoma cells (American Type Culture Collection, Manassas, VA) and HaCaT immortalized keratinocyte cells (kindly provided by Dr. Tadashi Terui, Department of Dermatology, Nihon University School of Medicine) were cultured in DMEM containing 10% FBS, 100 U/mL penicillin, and 0.1 mg/mL streptomycin. MG63 human osteosarcoma cells (RIKEN Cell Bank) and lung-derived H292 cells (American Type Culture Collection) were cultured in minimum essential medium containing 10% FBS, 100 U/mL penicillin, and 0.1 mg/mL streptomycin. […] All cells were cultured at 37 °C in a humidified atmosphere containing 5% CO2.
# (§5) For gene expression analysis, 1 × 10^4 cells per well were plated in a 24-well plate. After 24 h, the cells were treated with an ethanol control or 100 nM of each test compound for 24 h. […] Real-time PCR was performed on the ABI PRISM 7000 sequence detection system (Thermo Fisher Scientific, Waltham, MA, USA) using Power SYBR Green PCR master mix (Thermo Fisher Scientific).
# [3] = test system: CYP24A1 expression in SW480 cells; experiment: CYP24A1 expression (RT-qPCR) in SW480 cells; details: SW480 intestine cells, 100 nM, 24 h
# Procedure: as §4, §5
# [4] = test system: CYP24A1 expression in HaCaT cells; experiment: CYP24A1 expression (RT-qPCR) in HaCaT cells; details: HaCaT skin cells, 100 nM, 24 h
# Procedure: as §1, §2, §3
# [5] = test system: CYP24A1 expression in HEK293 cells; experiment: CYP24A1 expression (RT-qPCR) in HEK293 cells; details: HEK293 kidney cells, 100 nM, 24 h
# Procedure: as §4, §5
# VDR with NCoR = biological target: T2, VDR with NCoR (Homo sapiens, UniProt P11473); experiment: Mammalian two-hybrid assay, dissociation of NCoR from the VDR
# T2 sequence (P11473 1-427): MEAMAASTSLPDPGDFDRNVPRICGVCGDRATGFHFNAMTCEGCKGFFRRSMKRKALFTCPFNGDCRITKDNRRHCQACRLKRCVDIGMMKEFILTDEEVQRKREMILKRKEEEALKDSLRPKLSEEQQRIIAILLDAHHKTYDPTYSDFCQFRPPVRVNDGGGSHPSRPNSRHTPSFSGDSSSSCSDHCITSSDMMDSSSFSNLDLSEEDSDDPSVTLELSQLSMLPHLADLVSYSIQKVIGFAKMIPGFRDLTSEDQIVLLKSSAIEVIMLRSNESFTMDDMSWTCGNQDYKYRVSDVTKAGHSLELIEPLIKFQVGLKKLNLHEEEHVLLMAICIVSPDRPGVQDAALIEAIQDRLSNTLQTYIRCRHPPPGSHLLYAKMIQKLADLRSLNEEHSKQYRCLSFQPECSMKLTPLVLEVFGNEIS
# Procedure: We used the expression plasmids pCMX-VDR, pCMX-VP16- VDR, pCMX-GAL4-RXRα, pCMX-GAL4-SRC-1, and pCMX-GAL4- N-CoR, as reported previously [43]. […] We used luciferase reporters: VDR-responsive Sppx3-tk-LUC and GAL4-responsive MH100(UAS) × 4-tk-LUC reporters [43].
# Transfections of 50 ng of TK-Spp × 3-LUC reporter plasmid, 10 ng of pCMX-β-galactosidase, and 15 ng of pCMX-VDR for each well of a 96-well plate were performed in HEK293 cells using the calcium phosphate coprecipitation method, as described previously [43]. The mammalian two-hybrid assay for cofactor interaction with VDR used 50 ng of TK-MH100(UAS) × 3- LUC reporter plasmid, 10 ng of pCMX-β-galactosidase, 15 ng of pCMX-GAL4-RXRα, pCMX-GAL4-SRC1, or pCMX-GAL4-NCoR, and 15 ng of pCMX-VP16-VDR for each well of a 96-well plate. Luciferase and β-galactosidase activities were measured with a luminometer and a microplate reader (Molecular Devices, Sun Jose, CA, USA), respectively. Luciferase values were normalized to the internal β-galactosidase control.
# (B) Effects on the interactions between the VDR and SRC-1. HEK293 cells were co-transfected with CMX-GAL4-SRC-1, CMX-VP16-VDR, and MH100 (UAS) × 4-tk-LUC and were treated with each compound over a range of concentrations. (C) Effects on interactions of the VDR with NCoR-1. HEK293 cells were co-transfected with CMX-GAL4-N-CoR in combination with CMX-VP16-VDR and MH100 (UAS) × 4-tk-LUC and were treated with each compound over a range of concentrations.
structure (smiles),measurement,setting,value
"C=C1[C@H](O)CC(=C/C=C2\CCC[C@]3(C)[C@@H]([C@H](C)CC#C[C@](O)(CCCC)C45CC6CC(CC(C6)C4)C5)CC[C@@H]23)C[C@H]1O [ADKM6, (25S)-25-(1-Adamantyl)-1α,25-dihydroxy-2-methylidene-26-propyl-23-yne-19,27-dinorvitamin D3]","VDR affinity, % of that of 1,25(OH)2D3",recombinant hVDR-LBD,23%
same,CYP24A1 expression relative to natural hormone 1,[1],77.2%
same,CYP24A1 expression relative to natural hormone 1,[2],54.2%
same,CYP24A1 expression relative to natural hormone 1,[3],72.9%
same,CYP24A1 expression relative to natural hormone 1,[4],72.5%
same,CYP24A1 expression relative to natural hormone 1,[5],61.4%
same,pIC50,VDR with NCoR,9.40
